Laboratory results published in patent US20100248229A1, “INVITRO HUMAN EMBRYONIC MODEL AND A METHOD THEREOF” (Stempeutics Research Private Limited, priority 2007, published 2010).
“Also recorded” adds a separate entry of the source.

Key:
HUES 9 EB = assay: Expression profiles of lineage, pluripotency, epigenetic and imprinted genes in day 4.5 spherical EBs (HUES 9); format: cell-based, human; design: key: The sign ‘+’ indicates expression of the gene; the sign “−” indicates non-expression of the gene
Experimental: RT-PCR: Total RNA from cells was isolated using TRIZOL-LS Reagent (Invitrogen) as per the manufacturer's protocol. Complementary DNA was synthesized using the SuperScript III First-Strand Synthesis System (Invitrogen) as per the manufacturer's instructions. Polymerase Chain Reaction (PCR) was carried out using 1U Tag DNA Polymerase (Sigma) and MgCl2 to a final concentration of 1.5 mM in a total volume of 25 μl/reaction. β-actin and GAPDH were used as the housekeeping controls. PCR cycles consisted of an initial denaturation at 95° C. for 5 minutes followed by 35 amplification cycles of denaturation at 94° C. for 45 seconds, annealing for 45 seconds, and extension at 72° C. for 45 seconds and final extension at 72° C. for 10 minutes.
Examples of changes in the expression profiles/patterns of lineage markers, pluripotency markers, epigenetic markers and imprinted genes, in day 4.5 spherical cavitating/cytic embryoid bodies upon exposure to compounds like lipopolysaccharide (LPS), Rho kinase inhibitor (Y27632), Azacytidine (Aza), and biologicals like an Uvomorulin antibody (UVO) are given in the table nos. 9-12 below. The sign ‘+’ indicates expression of the gene and the sign “−” indicates non-expression of the gene.

EBs = assay: In vitro 3-D embryo implantation model: attachment and outgrowth of EBs; format: cell-based, human; conditions: for degeneration, attachment and outgrowth of EBs in implantation model: high dose, 48 hrs; for ability of attached EBs to give rise to all lineages: lineage induction studies, in presence of the compound
From the text: An in vitro 3-dimensional (3-D) model/system for embryo implantation employing EBs in place of embryos was developed. The EBs collected on different days were subjected to implantation/attachment on the artificial substratum/surface.
To make this artificial surface regular tissue culture dishes or organ culture dishes were coated with about 1 to 2 mm thick coating of 0.5 to 1% low melting or high melting agarose in DPBS. A few wells of about 1 to 2 mm diameter are created using sterile paper disks, preferable in the center of the dish, which were removed after the agarose solidifies. Alternatively a horizontal tube like structure can be created by casting the gel over a fine glass capillary, which can be withdrawn as the agarose solidifies. This cavity/depression or tube like structure of agarose is then coated with matrix proteins like matrigel, collagen, fibronectin, laminin, gelatin etc. The coated agarose dishes were also layered with mouse or human endometrial stromal cells obtained from primary cultures or cell lines. The EBs were placed carefully in the cavity created or flushed inside the tube using a bent pasture pipette. The cells were cultured in normal standard EB media.
The EBs adhere and outgrows spreading out as a monolayer of cells on the extracellular matrix. Some cells invaded the surrounding agarose by day 10. A failure to implant/outgrow within ten days on this matrix after exposure to the drug/molecule indicates an abnormality. However, some drugs/could also support/enhance the process of attachment and outgrowth of the EBs. These molecules were screened for several other possible applications, though these may not necessarily be safe for embryonic development.
Four day old EBs were cultured on agarose and fibronectin coated surfaces. […] However, as Y27632 supports and enhances outgrowth, the effect of this drug on the expression profiles of the lineage markers and other genes needs to be screened for evaluating effect on normal development.
The model consists of a culture plate which is coated with Low melting (0.5%) agarose, A well of various depths is created in the agarose by various means eg: putting sterile filter paper disks while casting the gel and removing them latter. The gel is then coated with extracellular matrix components like fibronectin, collagen, laminin, etc. Human endometrial stromal fibroblast cell line CRL4003 is grown on this extracellular matrix as a monolayer. The spherical embryoid bodies or embryo like entities at day 4.5 are injected or pipetted into these cavities. The attachment is allowed in a culture media regularly used for hESC culture, without FGF2 supplementation (FIG. 1).
3. Lineage induction studies: The embryoid bodies after attachment to the implantation site differentiates to all lineages.
Method: Spherical Cytic EBs were collected on day 4.5 and exposed to the continuous presence of Y27632 (various doses were used). […] The control cytic EB had however just attached with smaller area of outgrowth showing that this dose of Y27632 can help in initial implantation of embryo during pregnancy.

[1] = HUES 9 EB DAY 4.5 RI (Y27632), control +
[2] = HUES 9 EB DAY 4.5 RI (Y27632), control −

Nc1ncn([C@@H]2O[C@H](CO)[C@@H](O)[C@H]2O)c(=O)n1 [5-Azacytidine]
BRACHURY gene expression (HUES 9 EB; HUES 9 EB D 4.5 AZA, control +): − | CDH1 gene expression (HUES 9 EB; HUES 9 EB D 4.5 AZA, control +): − | CDH13 gene expression (HUES 9 EB; HUES 9 EB D 4.5 AZA, control +): − | CDX2 gene expression (HUES 9 EB; HUES 9 EB D 4.5 AZA, control +): − | DLK1 gene expression (HUES 9 EB; HUES 9 EB D 4.5 AZA, control +): − | HOXD12 gene expression (HUES 9 EB; HUES 9 EB D 4.5 AZA, control +): − | NANOG gene expression (HUES 9 EB; HUES 9 EB D 4.5 AZA, control +): − | SDHD gene expression (HUES 9 EB; HUES 9 EB D 4.5 AZA, control +): − | TIMP3 gene expression (HUES 9 EB; HUES 9 EB D 4.5 AZA, control +): − | TNFR gene expression (HUES 9 EB; HUES 9 EB D 4.5 AZA, control +): − | hTERT gene expression (HUES 9 EB; HUES 9 EB D 4.5 AZA, control +): − | p53 gene expression (HUES 9 EB; HUES 9 EB D 4.5 AZA, control +): − | BMP-2 gene expression (HUES 9 EB; HUES 9 EB D 4.5 AZA, control −): − | CD44 gene expression (HUES 9 EB; HUES 9 EB D 4.5 AZA, control −): − | DPYS gene expression (HUES 9 EB; HUES 9 EB D 4.5 AZA, control −): + | H19 gene expression (HUES 9 EB; HUES 9 EB D 4.5 AZA, control −): − | OCT-4 gene expression (HUES 9 EB; HUES 9 EB D 4.5 AZA, control −): + | PTEN gene expression (HUES 9 EB; HUES 9 EB D 4.5 AZA, control −): − | β-III TUBULIN gene expression (HUES 9 EB; HUES 9 EB D 4.5 AZA, control −): − | degeneration, attachment and outgrowth of EBs in implantation model (EBs): degeneration of the EBs, and they failed to attach and outgrow

C[S+](C)[O-] [DMSO]
degeneration, attachment and outgrowth of EBs in implantation model (EBs): degeneration of the EBs, and they failed to attach and outgrow | ability of attached EBs to give rise to all lineages (EBs): compromised

OO [H2O2]
ability of attached EBs to give rise to all lineages (EBs): compromised

C[C@@H](N)[C@H]1CC[C@H](C(=O)Nc2ccncc2)CC1 [Y27632]
BRACHURY gene expression (HUES 9 EB; [1]): − | CDH1 gene expression (HUES 9 EB; [1]): + | CDX-2 gene expression (HUES 9 EB; [1]): − | DLK-1 gene expression (HUES 9 EB; [1]): − | HOXD11 gene expression (HUES 9 EB; [1]): + | HOXD12 gene expression (HUES 9 EB; [1]): − | SDHD gene expression (HUES 9 EB; [1]): − | TIMP3 gene expression (HUES 9 EB; [1]): − | hTERT gene expression (HUES 9 EB; [1]): − | p53 gene expression (HUES 9 EB; [1]): − | BMP-2 gene expression (HUES 9 EB; [2]): − | CD44 gene expression (HUES 9 EB; [2]): + | NOTCH gene expression (HUES 9 EB; [2]): + | OCT-4 gene expression (HUES 9 EB; [2]): + | PGR gene expression (HUES 9 EB; [2]): + | PTEN gene expression (HUES 9 EB; [2]): + | TGF β gene expression (HUES 9 EB; [2]): + | TP73 gene expression (HUES 9 EB; [2]): + | β-III TUBULIN gene expression (HUES 9 EB; [2]): + | attachment and outgrowth of spheroid cavitating/cystic EB in implantation model (EBs; day 4.5 EBs, 20 μM, 48 hrs exposure): supportive/enhanced attachment; also recorded: attached and outgrown to a larger area | attachment of EBs (EBs; four day old EBs on agarose and fibronectin coated surfaces, 20 μM, control attached from 4th day): enhanced attachment from day 2 onwards
